# Reference: PubChem BioAssay (NCI)
#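 Grown in 96-well plates, cells were treated for 48 hours with each compound at five concentrations. Insufficient inhibition: endpoint recorded as highest concentration tested. GI50: concentration for 50% inhibition of growth. TGI: total growth inhibition.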
# Columns and labels:
# Test in all cases: NCI tumour cell line growth inhibition, 48 h
# [1] = tested on: UACC-62 melanoma
# [2] = tested on: RPMI-8226 leukemia
# [3] = tested on: SW-620 colon
# [4] = tested on: NCI/ADR-RES ovarian
# [5] = tested on: PC-3 prostate
# [6] = tested on: UO-31 renal
# [7] = tested on: CAKI-1 renal
# [8] = tested on: MCF7 breast
# [9] = tested on: IGROV1 ovarian
# [10] = tested on: OVCAR-3 ovarian
# [11] = tested on: LOX IMVI melanoma
# [12] = tested on: BT-549 breast
# [13] = tested on: NCI-H226 lung
# [14] = tested on: SK-MEL-5 melanoma
# [15] = tested on: SK-OV-3 ovarian
# [16] = tested on: M14 melanoma
# [17] = tested on: CCRF-CEM leukemia
# [18] = tested on: RXF 393 renal
# [19] = tested on: HOP-92 NSCLC
# [20] = tested on: A549 NSCLC
# [21] = tested on: HCC-2998 colon
# [22] = tested on: HL-60(TB) leukemia
# [23] = tested on: SR leukemia
# [24] = tested on: U251 CNS
# [25] = tested on: HCT-116 colon
# [26] = tested on: COLO 205 colon
# [27] = tested on: 786-0 renal
# [28] = tested on: SF-539 CNS
# [29] = tested on: SK-MEL-28 melanoma
# [30] = tested on: OVCAR-4 ovarian
# [31] = tested on: SK-MEL-2 melanoma
# [32] = tested on: EKVX NSCLC
# [33] = tested on: ACHN renal
# [34] = tested on: SN12C renal
# [35] = tested on: HOP-62 NSCLC
# [36] = tested on: SF-268 CNS
# [37] = tested on: MALME-3M melanoma
# [38] = tested on: OVCAR-8 ovarian
# [39] = tested on: HCT-15 colon
# [40] = tested on: MOLT-4 leukemia
# [41] = tested on: SF-295 CNS
# [42] = tested on: A498 renal
# [43] = tested on: HS 578T breast
# [44] = tested on: SNB-75 CNS
# [45] = tested on: T-47D breast
# [46] = tested on: MDA-MB-231 breast
# [47] = tested on: SNB-19 CNS
# [48] = tested on: TK-10 renal
# [49] = tested on: K-562 leukemia
# [50] = tested on: DU-145 prostate
# [51] = tested on: OVCAR-5 ovarian
# [52] = tested on: NCI-H522 lung
# [53] = tested on: NCI-H460 lung
# [54] = tested on: MDA-MB-435
# [55] = tested on: KM12 colon
# [56] = tested on: HT29 colon
# [57] = tested on: NCI-H23 lung
structure (smiles),measurement,setting,value
CCN1C(=O)N(CC)C2C1NN=C1SC(c3ccccc3)=CC(=O)N12 (stereo not given),GI50,[1],343 nM
same,TGI,[1],> 100 µM
same,GI50,[2],580 nM
same,TGI,[2],> 54.3 µM
same,GI50,[3],349 nM
same,TGI,[3],> 100 µM
same,GI50,[4],385 nM
same,TGI,[4],> 100 µM
same,GI50,[5],515 nM
same,TGI,[5],> 100 µM
same,GI50,[6],605 nM
same,TGI,[6],> 100 µM
same,GI50,[7],357 nM
same,TGI,[7],> 100 µM
same,GI50,[8],277 nM
same,TGI,[8],> 100 µM
same,GI50,[9],1090 nM
same,TGI,[9],> 100 µM
same,GI50,[10],320 nM
same,TGI,[10],1590 nM
same,GI50,[11],562 nM
same,TGI,[11],> 100 µM
same,GI50,[12],330 nM
same,TGI,[12],25.1 µM
same,GI50,[13],561 nM
same,TGI,[13],> 72 µM
same,GI50,[14],493 nM
same,TGI,[14],41.8 µM
same,GI50,[15],545 nM
same,TGI,[15],> 56.1 µM
same,GI50,[16],344 nM
same,TGI,[16],> 100 µM
same,GI50,[17],428 nM
same,TGI,[17],> 100 µM
same,GI50,[18],198 nM
same,TGI,[18],538 nM
same,GI50,[19],> 36.3 µM
same,TGI,[19],> 100 µM
same,GI50,[20],1020 nM
same,TGI,[20],> 100 µM
same,GI50,[21],1540 nM
same,TGI,[21],> 28.2 µM
same,GI50,[22],308 nM
same,GI50,[23],140 nM
same,TGI,[23],> 100 µM
same,GI50,[24],546 nM
same,TGI,[24],> 100 µM
same,GI50,[25],388 nM
same,TGI,[25],> 100 µM
same,GI50,[26],429 nM
same,TGI,[26],2200 nM
same,GI50,[27],472 nM
same,TGI,[27],> 100 µM
same,GI50,[28],375 nM
same,TGI,[28],3.03 µM
same,GI50,[29],872 nM
same,TGI,[29],> 100 µM
same,GI50,[30],15.7 µM
same,TGI,[30],> 100 µM
same,GI50,[31],481 nM
same,TGI,[31],> 100 µM
same,TGI,[32],> 100 µM
same,GI50,[33],660 nM
same,TGI,[33],> 100 µM
same,GI50,[34],596 nM
same,TGI,[34],> 100 µM
same,GI50,[35],532 nM
same,TGI,[35],> 100 µM
same,GI50,[36],3.05 µM
same,TGI,[36],> 100 µM
same,GI50,[37],492 nM
same,TGI,[37],> 100 µM
same,GI50,[38],1470 nM
same,TGI,[38],> 20.4 µM
same,GI50,[39],313 nM
same,TGI,[39],> 74.9 µM
same,GI50,[40],809 nM
same,TGI,[40],> 100 µM
same,GI50,[41],389 nM
same,TGI,[41],> 24.9 µM
same,GI50,[42],> 100 µM
same,TGI,[42],> 100 µM
same,GI50,[43],489 nM
same,TGI,[43],> 100 µM
same,GI50,[44],210 nM
same,GI50,[45],286 nM
same,TGI,[45],> 100 µM
same,GI50,[46],2450 nM
same,TGI,[46],> 100 µM
same,GI50,[47],730 nM
same,TGI,[47],> 100 µM
same,GI50,[48],53.5 µM
same,TGI,[48],> 100 µM
same,GI50,[49],258 nM
same,TGI,[49],> 100 µM
same,GI50,[50],717 nM
same,TGI,[50],> 100 µM
same,GI50,[51],921 nM
same,TGI,[51],> 100 µM
same,GI50,[52],228 nM
same,TGI,[52],772 nM
same,GI50,[53],394 nM
same,TGI,[53],> 36.9 µM
same,GI50,[54],42.9 nM
same,TGI,[54],176 nM
same,GI50,[55],344 nM
same,TGI,[55],> 85.6 µM
same,GI50,[56],338 nM
same,GI50,[57],1220 nM
same,TGI,[57],> 100 µM
